According to ChEMBL document CHEMBL6127136, “Discovery of 1-(Phenylsulfonyl)-1,2,3,4-tetrahydroquinoline Derivative as Orally Bioavailable and Safe RORγt Inverse Agonists for Potential Treatment of Rheumatoid Arthritis” (J Med Chem, 2024):
The source made the active and inactive calls. The rule behind the calls is not given here.

Tests used:
[1] = AUC (0 to infinity) in male DBA/1 mouse at 5 mg/kg, iv measured after 24 hrs by HPLC analysis; format: ADME, organism-based; conditions: in vivo
Mus musculus [2] = assay: (§1) Antiinflammatory activity against imiquimod-induced psoriasis-like skin inflammation in Balb/c mouse model assessed as decrease in dermal telangiectasia at 10 mg/kg, IG preadministered with IMQ for 3 days followed by compound administration from day 4 and measured on day 14 by H and E staining based analysis; format: functional, organism-based; conditions: time 11.0 day
Mus musculus [3] = assay: Antiarthritic activity in chicken type II collagen-induced arthritis DBA/1 mouse model assessed as reduction in hind paw erythema at 20 mg/kg/day, po administered for 2 weeks by H and E staining based analysis; format: functional, organism-based
Mus musculus [4] = assay: Antiarthritic activity in chicken type II collagen-induced arthritis DBA/1 mouse model assessed as reduction in fore paw erythema at 20 mg/kg/day, po administered for 2 weeks by H and E staining based analysis; format: functional, organism-based
[5] = AUC (0 to t) in male DBA/1 mouse at 5 mg/kg, iv measured after 24 hrs by HPLC analysis; format: ADME, organism-based; conditions: in vivo
Mus musculus [6] = assay: as §1, with “IL-17A expression in skin” for “dermal telangiectasia”, “immunohistochemical” for “H and E staining based”; format: functional, organism-based; conditions: time 11.0 day
Mus musculus [7] = assay: Antiarthritic activity in chicken type II collagen-induced arthritis DBA/1 mouse model assessed as reduction in hind paw swelling at 20 mg/kg/day, po administered for 2 weeks by H and E staining based analysis; format: functional, organism-based
[8] = AUC (0 to t) in male DBA/1 mouse at 20 mg/kg, po measured after 24 hrs by HPLC analysis; format: ADME, organism-based; conditions: in vivo
[9] = Toxicity in chicken type II collagen-induced arthritis DBA/1 mouse model assessed as morphological changes in thymocytes at 20 mg/kg/day, po administered for 2 weeks by H and E staining based analysis; format: organism-based; conditions: in vivo, 336 h
Mus musculus [10] = assay: as §1, with “reduction” for “decrease”, “inflammatory cell infiltration in skin” for “dermal telangiectasia”; format: functional, organism-based; conditions: time 11.0 day
Mus musculus [11] = assay: as §1, with “reduction” for “decrease”, “mononuclear cell infiltration in skin” for “dermal telangiectasia”; format: functional, organism-based; conditions: time 11.0 day
[12] = Toxicity in chicken type II collagen-induced arthritis DBA/1 mouse model assessed as increase in thymic cortex to medulla ratio at 20 mg/kg/day, po administered for 2 weeks by H and E staining based analysis; format: organism-based; conditions: in vivo, 336 h
[13] = Cmax in male DBA/1 mouse at 5 mg/kg, iv measured after 24 hrs by HPLC analysis; format: ADME, organism-based; conditions: in vivo
[14] = target: T1, Nuclear receptor ROR-gamma (Homo sapiens, UniProt P51449); assay: Inverse agonist activity at N-terminal 6-His-tagged/APC-labeled human RORgammat LBD extracted from Escherichia coli assessed as inhibition of europium-labeled SRC-1 recruitment incubated for 3 hrs by TR-FRET analysis
T1 sequence (P51449 whole entry): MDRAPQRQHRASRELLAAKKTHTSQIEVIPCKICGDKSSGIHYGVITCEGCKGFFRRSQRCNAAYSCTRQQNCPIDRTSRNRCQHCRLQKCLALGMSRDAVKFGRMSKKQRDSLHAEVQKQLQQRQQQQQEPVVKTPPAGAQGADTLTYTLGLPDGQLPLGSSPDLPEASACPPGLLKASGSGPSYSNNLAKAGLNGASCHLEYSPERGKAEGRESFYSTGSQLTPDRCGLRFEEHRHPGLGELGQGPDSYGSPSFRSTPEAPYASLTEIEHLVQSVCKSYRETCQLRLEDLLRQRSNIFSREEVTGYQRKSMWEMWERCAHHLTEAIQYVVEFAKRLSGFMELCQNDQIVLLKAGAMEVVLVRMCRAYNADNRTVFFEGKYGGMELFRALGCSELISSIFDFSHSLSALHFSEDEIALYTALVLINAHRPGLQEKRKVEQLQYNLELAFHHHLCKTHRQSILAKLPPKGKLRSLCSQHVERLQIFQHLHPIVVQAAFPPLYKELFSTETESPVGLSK

[15] = Toxicity in chicken type II collagen-induced arthritis DBA/1 mouse model assessed as signs of lymphoma at 20 mg/kg/day, po administered for 2 weeks by H and E staining based analysis; format: organism-based; conditions: in vivo, 336 h
[16] = Half-life in male DBA/1 mouse at 20 mg/kg, po measured after 24 hrs by HPLC analysis; format: ADME, organism-based; conditions: in vivo
Mus musculus [17] = assay: Antiarthritic activity in chicken type II collagen-induced arthritis DBA/1 mouse model assessed as reduction in fore paw thickness at 20 mg/kg/day, po administered for 2 weeks by H and E staining based analysis; format: functional, organism-based
[18] = Clearance in male DBA/1 mouse at 5 mg/kg, iv measured after 24 hrs by HPLC analysis; format: ADME, organism-based; conditions: in vivo
[19] = Toxicity in chicken type II collagen-induced arthritis DBA/1 mouse model assessed as signs of thymic enlargement at 20 mg/kg/day, po administered for 2 weeks by H and E staining based analysis; format: organism-based; conditions: in vivo, 336 h
Mus musculus [20] = assay: Antiarthritic activity in chicken type II collagen-induced arthritis DBA/1 mouse model assessed as reduction in fore paw swelling at 20 mg/kg/day, po administered for 2 weeks by H and E staining based analysis; format: functional, organism-based
[21] = Toxicity in chicken type II collagen-induced arthritis DBA/1 mouse model assessed as behavioral abnormalities at 20 mg/kg/day, po measured after 42 days; format: organism-based; conditions: in vivo, 1008 h, time 42 day
[22] = target: T1, Nuclear receptor ROR-gamma; assay: Inverse agonist activity at GAL4 DNA-binding domain fused RORgamma (unknown origin) transfected in HEK293T cells co-transfected with GAL4-promoter driven luciferase reporter gene assessed as inhibition of RORgammat transcription incubated for 18 to 20 hrs by plate reader analysis; format: cell-based
Mus musculus [23] = assay: Antiarthritic activity in chicken type II collagen-induced arthritis DBA/1 mouse model assessed as improvement in arthritic symptoms at 20 mg/kg/day, po administered for 2 weeks by H and E staining based analysis; format: functional, organism-based
[24] = Oral bioavailability in male DBA/1 mouse at 20 mg/kg measured after 24 hrs by HPLC analysis; format: ADME, organism-based; conditions: in vivo
[25] = Tmax in male DBA/1 mouse at 20 mg/kg, po measured after 24 hrs by HPLC analysis; format: ADME, organism-based; conditions: in vivo
[26] = Half-life in male DBA/1 mouse at 5 mg/kg, iv measured after 24 hrs by HPLC analysis; format: ADME, organism-based; conditions: in vivo
Mus musculus [27] = assay: as §1, with “IL-17F expression in skin” for “dermal telangiectasia”, “immunohistochemical” for “H and E staining based”; format: functional, organism-based; conditions: time 11.0 day
Mus musculus [28] = assay: as §1, with “IL-23 expression in skin” for “dermal telangiectasia”, “immunohistochemical” for “H and E staining based”; format: functional, organism-based; conditions: time 11.0 day
[29] = AUC (0 to infinity) in male DBA/1 mouse at 20 mg/kg, po measured after 24 hrs by HPLC analysis; format: ADME, organism-based; conditions: in vivo
[30] = Cmax in male DBA/1 mouse at 20 mg/kg, po measured after 24 hrs by HPLC analysis; format: ADME, organism-based; conditions: in vivo
[31] = Toxicity in chicken type II collagen-induced arthritis DBA/1 mouse model assessed as body weight loss at 20 mg/kg/day, po measured after 42 days; format: organism-based; conditions: in vivo, 1008 h, time 42 day
Mus musculus [32] = assay: Antiarthritic activity in chicken type II collagen-induced arthritis DBA/1 mouse model assessed as reduction in hind paw thickness at 20 mg/kg/day, po administered for 2 weeks by H and E staining based analysis; format: functional, organism-based
Mus musculus [33] = assay: Antiarthritic activity in chicken type II collagen-induced arthritis DBA/1 mouse model assessed as reduction in clinical score at 20 mg/kg/day, po measured after 42 days; format: functional, organism-based; conditions: time 42.0 day
[34] = Tmax in male DBA/1 mouse at 5 mg/kg, iv measured after 24 hrs by HPLC analysis; format: ADME, organism-based; conditions: in vivo
Mus musculus [35] = assay: as §1, with “attenuation of skin layer thickening” for “decrease in dermal telangiectasia”; format: functional, organism-based; conditions: time 11.0 day
[36] = Toxicity in imiquimod-induced psoriasis-like skin inflammation Balb/c mouse model assessed as change in body weight at 10 mg/kg, IG preadministered with IMQ for 3 days followed by compound administration from day 4 and measured on day 14; format: organism-based; conditions: in vivo, po, 264 h, time 11 day

SMILES: CCc1ccc(N(CC(C)C)S(=O)(=O)c2ccc(OCC3CCOCC3)c(CO)c2)cc1 [GSK2981278]
- AUC(0-inf) [1]: 1310 ng·h/mL
- Activity (Mus musculus [2]): Active
- Activity (Mus musculus [3]): Active
- Activity (Mus musculus [4]): Active
- AUC(0-t) at 24 h [5]: 1270 ng·h/mL
- Activity (Mus musculus [6]): Active
- Activity (Mus musculus [7]): Active
- AUC(0-t) at 24 h [8]: 299 ng·h/mL
- Activity [9]: Non-Toxic
- Activity (Mus musculus [10]): Active
- Activity (Mus musculus [11]): Active
- Activity [12]: Toxic
- Cmax [13]: 1280 ng/mL
- IC50 [14]: 2.5 nM
- Activity [15]: Non-Toxic
- half-life [16]: 4.99 h
- Activity (Mus musculus [17]): Active
- clearance [18]: 64.2 mL/min/kg
- Activity [19]: Non-Toxic
- Activity (Mus musculus [20]): Active
- Activity [21]: Non-Toxic
- IC50 [22]: 13.6 nM
- Activity (Mus musculus [23]): Active
- bioavailability [24]: 6.2%
- Tmax [25]: 0.417 h
- half-life [26]: 3.81 h
- Activity (Mus musculus [27]): Active
- Activity (Mus musculus [28]): Active
- AUC(0-inf) [29]: 326 ng·h/mL
- Cmax [30]: 99.3 ng/mL
- Activity [31]: Non-Toxic
- Activity (Mus musculus [32]): Active
- Activity (Mus musculus [33]): Active
- Tmax [34]: 4.98 min
- Activity (Mus musculus [35]): Active
- Activity [36]: Non-Toxic
